Experimental data as given in patent US11707448B2, “Combination therapies for the treatment of cancer” (Eisai R&D Management Co., Ltd., priority 2014, dated 2023).
Where a name gives a salt, the structure may show the parent alone.

System: PAN02 pancreatic tumors
Experiment: PAN02 pancreatic tumor model, ER-886046 with gemcitabine and radiation
Assay type: in vivo, mice
Details: gemcitabine single 40 mg/kg + RT single 6 Gy on day 27; first study (FIG. 10)
Description: FIG. 10. […] Antitumor activity of gemcitabine plus local radiation (RT) administered to PAN02 pancreatic tumors in C57BL/6 mice with or without ER-886046. Gemcitabine and RT dosing: a single 40 mg/kg dose of gemcitabine and a single 6 Gy dose of RT, was administered on day 27 post tumor cell injection. ER-8806046 was administered daily in an amount of 150 mg/kg from day 27 post tumor cell injection until the end of the study.
FIG. 11A to FIG. 11B. Additional experiments with combination therapy of ER-886046 and anti-metabolite chemotherapy with radiation compared to anti-metabolite chemotherapy with radiation alone. Panel shown in FIG. 11A) Gemcitabine and RT dosing: a single 40 mg/kg dose of gemcitabine and a single 6 Gy dose of RT, was administered on day 19 post tumor cell injection. ER-8806046 was administered daily in an amount of 150 mg/kg from day 19 post tumor cell injection until the end of the study. Panel shown in FIG. 11B) Gemcitabine and RT dosing: a single 40 mg/kg dose of gemcitabine and a single 6 Gy dose of RT, was administered on day 12 post tumor cell injection. ER-8806046 was administered daily in an amount of 150 mg/kg from day 12 post tumor cell injection until the end of the study. Average tumor sizes of mouse pancreatic PAN02 tumor-bearing mice that received vehicles, ER-886046, gemcitabine (gem) plus radiation (RT), ER-886046 plus RT, or ER-886046 plus gemcitabine and RT at indicated dosages and schedules. A and B represent each independent study. N=8-10 per group. NS, not significant; *, p<0.05; **, p<0.01; ***, p<0.001; and ****, p<0.0001, two-way ANOVA test.
Animal studies; In vitro cultured cancer cells were harvested and suspended in 100 μl of cold HBSS buffer at cell concentrations of 1.0×10^6 cells/ml (CT-26 cells) or of 1.0×10^7 cells/ml (PAN02 cells) and subcutaneously (sc) injected into the mice using a 26 g syringe on day 0. At the dates as indicated in the figures, the mice were randomized based on the tumor size followed by treatments with local radiation alone, gemcitabine alone (intravenous administration), ER-886046 alone (oral administration), or combinations of these treatments. […] The tumor sizes were measured twice a week by a digital caliber (Mitutoyo Corp), and the volume was calculated using the formula (1×w^2)/2=mm^3, where 1 and w refer to the larger and smaller perpendicular dimensions collected at each measurement. Graphs of group tumor sizes (mean±SEM) versus time were plotted using software GraphPad Prism 6 (Lake Forest, Calif.). Two way ANOVA was used for statistical calculation among the groups. N=8-10 in each treatment group.

SMILES: Nc1ccn([C@@H]2O[C@H](CO)[C@@H](O)C2(F)F)c(=O)n1 [gemcitabine, Gemcitabine hydrochloride, reference compound]
- tumor growth delay activity: weak but statistically significant tumor growth delay activity
